# Test results reported in paper PMC3104040 (Bioorganic & medicinal chemistry, 2011).
# Legend:
# [1] = system: cowpox virus (Brighton); assay: organism not typed; assay type: cell-based; conditions: HFF, read-out: EC50 in cells infected with cowpox or vaccinia virus
# [2] = system: ECTV-Moscow strain; assay: organism not typed; assay type: cell-based, Ectromelia
# [3] = system: Vaccinia virus (Copenhagen); assay: microbe, parasite or virus in culture; assay type: cell-based; conditions: Orthopoxvirus vaccinia, HFF, read-out: Vaccinia EC50
compound,measurement,setting,value
"CC(C)CCCCCCCCCCCOCCCOP(=O)(O)CO[C@H](CO)Cn1ccc(N)nc1=O [Compound 12M-TRDP-CDV, 12-methyl-tridecyloxypropyl-cidofovir]",EC50,[1],800 to 1000 nM
"C=CCCCCCCCCCCCCCCOCCOP(=O)(O)CO[C@H](CO)Cn1cnc2c(N)ncnc21 [HDNE-(S)-HPMPA, ω-hexadecenyloxyethyl-(S)-HPMPA]",Ectromelia S.I. (selective index),[2],7
same,EC50,"[2]; BSC-1, read-out: antiviral activity (EC50), virus not specified",300 to 740 nM
"CCCCCCCCCCCCCCCCOCCCOP(=O)(O)CO[C@H](CO)Cn1cnc2c(N)ncnc21 [HDP-(S)-HPMPA, hexadecyloxypropyl-(S)-HPMPA]","% intact compound, human liver S9",,92-93%
"CCCCCCCCCCCCCCCCOCCCOP(=O)(O)CO[C@H](CO)Cn1ccc(N)nc1=O [HDP-CDV, hexadecyloxypropyl-cidofovir]",EC50,[3],80 ± 30 nM
"CCCCCCCCCCCCCCCCCCOC[C@@H](COP(=O)(O)CO[C@H](CO)Cn1ccc(N)nc1=O)OCc1ccccc1 [ODBG-CDV, 1-O-octadecyl-2-O-benzyl-sn-glyceryl-3-cidofovir]","% compound remaining, Human S9","s9, 1.5 h",91-92%
